Four molecules from ChEMBL document CHEMBL1201862, “PubChem BioAssay data set” (2004) can be followed below.

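How tested: cells in 96-well plates exposed to compound for 48 hours at five concentrations. At the GI50, growth is halved.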 Activity calls are given as the source filed them. Rule as the data show it: active = GI50 up to about 1.1 µM and inactive = higher.

Test systems include UACC-257; NCI-H226; LOX IMVI; 786-0; CAKI-1; SNB-19; HCC 2998; IGROV-1; HCT-116; A549; SF-268; NCI-H23; SK-MEL-2; SK-MEL-28; M14; SK-MEL-5; MDA-MB-435; T47D; SK-OV-3; U-251.
Holding throughout (assay): DTP human tumour cell line panel, 48 h

For the molecule `CC1(C)OP(=O)(O)C=C1Sc1ccc([N+](=O)[O-])cc1[N+](=O)[O-]`, the GI50 with UACC-257, with NCI-H226, in the assay on LOX IMVI, in the assay with 786-0, in the assay on CAKI-1 and in the assay with SNB-19 was > 100 µM (inactive) throughout. Besides, the GI50 in the assay with HCC 2998, in the assay with IGROV-1, with HCT-116, in the assay on A549, in the assay with SF-268 and in the assay on NCI-H23 was > 100 µM (inactive) each time. The GI50 in the assay with SK-MEL-2, in the assay on SK-MEL-28, in the assay on M14, in the assay with SK-MEL-5, in the assay on MDA-MB-435 and in the assay on T47D was > 100 µM (inactive) each time. Also, the GI50 in the assay on SK-OV-3 and in the assay on U-251 was > 100 µM (inactive) in each case.
For `CN(C)C(=S)C(Cl)(c1ccccc1)c1ccccc1`, the GI50 in the assay with UACC-257 is > 100 µM (inactive); in the assay with NCI-H226 it was 53.7 µM (inactive); in the assay on LOX IMVI, 34.5 µM (inactive); in the assay with 786-0, 44.4 µM (inactive); in the assay on CAKI-1 it was > 100 µM (inactive); in the assay with SNB-19 it was > 100 µM (inactive). In addition, the GI50 is > 100 µM (inactive) with HCC 2998; > 100 µM (inactive) with IGROV-1; 38.4 µM (inactive) in the assay on HCT-116; 59.8 µM (inactive) with A549; > 100 µM (inactive) in the assay on SF-268; 53.3 µM (inactive) in the assay on NCI-H23. The GI50 is 27.4 µM (inactive) in the assay on SK-MEL-2; > 100 µM (inactive) in the assay with SK-MEL-28; > 100 µM (inactive) in the assay with M14; 36.4 µM (inactive) in the assay on SK-MEL-5; 37.1 µM (inactive) in the assay on MDA-MB-435; 22.4 µM (inactive) with T47D. For the same molecule, the GI50 was > 100 µM (inactive) in the assay on SK-OV-3 and 36.1 µM (inactive) in the assay with U-251.
Turning to `CS(=O)(=O)c1nc(Cl)c(Cl)c(C#N)c1Cl`, the GI50 in the assay with UACC-257 is 2.49 µM (inactive); in the assay with NCI-H226, 13.2 µM (inactive); with LOX IMVI it was 1.95 µM (inactive); in the assay on 786-0, 1.94 µM (inactive); with CAKI-1 it was 0.984 µM (active); with SNB-19, 19.8 µM (inactive). Moreover, the GI50 in the assay on HCC 2998 is 14.2 µM (inactive); in the assay on IGROV-1, 6.59 µM (inactive); in the assay with HCT-116, 2.25 µM (inactive); with A549, 18.7 µM (inactive); in the assay with SF-268 it was 6.76 µM (inactive); in the assay on NCI-H23, 1.32 µM (inactive). In addition, the GI50 in the assay on SK-MEL-2 is 5.37 µM (inactive); in the assay on SK-MEL-28, 2.12 µM (inactive); with M14, 1.91 µM (inactive); in the assay on SK-MEL-5 it was 5.12 µM (inactive); in the assay with MDA-MB-435, 2.01 µM (inactive); in the assay with T47D, 2.16 µM (inactive). The values for the GI50 in the assay on SK-OV-3 and with U-251 were 6.75 µM (inactive) and 4.9 µM (inactive), respectively.
As for `Nc1nc(Br)nc2ncn(C3CC(O)C(CO)O3)c12` (stereo not given), the GI50 is > 100 µM (inactive) with UACC-257; > 68.1 µM (inactive) in the assay on NCI-H226; > 72.9 µM (inactive) with LOX IMVI; 77.3 µM (inactive) in the assay with 786-0; 16 µM (inactive) in the assay with CAKI-1; 42.2 µM (inactive) with SNB-19. Further, the GI50 in the assay with HCC 2998 was > 60.8 µM (inactive); in the assay on IGROV-1, > 100 µM (inactive); in the assay on HCT-116 it was 26.4 µM (inactive); in the assay with A549, 18 µM (inactive); in the assay with SF-268, > 100 µM (inactive); in the assay with NCI-H23 it was 3.76 µM (inactive). Besides, the GI50 in the assay with SK-MEL-2 is > 100 µM (inactive); in the assay on SK-MEL-28 it was > 100 µM (inactive); in the assay with M14 it was 3.05 µM (inactive); in the assay on SK-MEL-5 it was 60 µM (inactive); with MDA-MB-435, > 100 µM (inactive); with T47D, > 100 µM (inactive). Also, the values for the GI50 in the assay with SK-OV-3 and in the assay with U-251 were > 100 µM (inactive) and > 53 µM (inactive), respectively.
